Experimental data from article PMC5541372 (Biochemistry, 2017).

Biological target: T1, NOV2 (Novosphingobium aromaticivorans, UniProt Q2G4H8)
T1 sequence (Q2G4H8 1-497): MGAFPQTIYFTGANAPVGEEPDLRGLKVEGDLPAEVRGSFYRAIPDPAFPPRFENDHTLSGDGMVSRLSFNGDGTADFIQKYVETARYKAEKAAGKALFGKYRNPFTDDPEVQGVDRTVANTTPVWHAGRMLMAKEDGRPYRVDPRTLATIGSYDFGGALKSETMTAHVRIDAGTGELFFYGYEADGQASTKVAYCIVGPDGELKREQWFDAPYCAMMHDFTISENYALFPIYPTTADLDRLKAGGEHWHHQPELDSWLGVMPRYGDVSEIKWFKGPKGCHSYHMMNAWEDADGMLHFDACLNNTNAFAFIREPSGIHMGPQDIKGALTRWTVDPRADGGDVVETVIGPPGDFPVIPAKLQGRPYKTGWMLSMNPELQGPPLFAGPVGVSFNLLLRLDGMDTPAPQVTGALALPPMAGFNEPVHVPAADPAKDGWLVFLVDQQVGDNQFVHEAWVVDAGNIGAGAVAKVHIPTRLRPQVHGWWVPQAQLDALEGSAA
Experiment: EPR of Fe-NO adduct and […] Mössbauer
Format: binding
Conditions: anaerobic, NO present for EPR

SMILES	EPR of Fe-NO adduct and 57Fe Mössbauer (4-10 equiv substrate, pH 8.5 or 7.5)	EPR of Fe-NO adduct and 57Fe Mössbauer (4 equiv substrate, pH 8.5)
Oc1cc(O)cc(/C=C/c2ccc(O)c(O)c2)c1 [piceatannol]	nearly all active sites had substrate bound	–
Oc1ccc(/C=C/c2cc(O)cc(O)c2)cc1 [resveratrol]	–	The resveratrol ES+NO of NOV2 showed EPR spectra (Figure 5D) similar to those with piceatannol
